Measurements as given in PMC3104272 (Journal of medicinal chemistry, 2011).
Converted amounts (≈) assume the structure as drawn. Where two headings read alike, the source gives them in different places.

Key:
[1] = test system: P. falciparum chloroquine sensitive strain D10; assay: In vitro antiplasmodial activity, D10 strain; assay type: cell-based; details: Plasmodium falciparum, D10, read-out: IC50, D10
[2] = test system: P. falciparum chloroquine resistant strain Dd2; assay: In vitro antiplasmodial activity, Dd2 strain; assay type: cell-based; details: Plasmodium falciparum, DD2, read-out: IC50, Dd2
[3] = test system: P. falciparum chloroquine resistant strain W2; assay: In vitro antiplasmodial activity, W2 strain; assay type: cell-based; details: Plasmodium falciparum, W2, read-out: IC50, W2
[4] = NADPH and UDPGA relative to NADPH alone; putative P + 176 metabolite
Solubility estimates = assay type: physicochemical; details: for Solubility pH 2.0: 0.01M HCl (approximately pH 2.0)
Falcipain 2 = target: T1, Falcipain 2 (Plasmodium falciparum, UniProt Q8I6U4); assay: Falcipain 2 inhibition assay; assay type: biochemical; details: averages of duplicate determinations
T1 sequence (Q8I6U4 244-484): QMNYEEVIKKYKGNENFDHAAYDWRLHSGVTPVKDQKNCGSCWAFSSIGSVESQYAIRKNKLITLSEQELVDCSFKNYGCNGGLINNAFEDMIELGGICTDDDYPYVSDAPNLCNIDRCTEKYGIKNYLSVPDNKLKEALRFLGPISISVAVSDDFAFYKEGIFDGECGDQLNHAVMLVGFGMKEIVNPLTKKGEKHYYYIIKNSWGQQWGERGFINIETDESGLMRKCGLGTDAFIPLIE

[5] = test system: Chinese Hamster Ovarian (mammalian) cell line; details: previously reported finding; cited from earlier work
[6] = In vitro metabolic stability, human liver microsomes; assay type: in vitro ADME; details: calculated hepatic extraction ratio
[7] = In vitro metabolic stability, mouse liver microsomes; assay type: in vitro ADME; details: calculated hepatic extraction ratio
[8] = test system: Chinese Hamster Ovarian (mammalian) cell line; assay: Cytotoxicity against Chinese Hamster Ovarian cell line; assay type: cell-based; details: highest concentration (100 µM) tested

| Falcipain 2 (IC50) (Falcipain 2) | solubility (Solubility estimates; phosphate buffer, pH 6.5) [µg/mL] | Microsome-Predicted Extraction ratio (EH), Human [6] | Microsome-Predicted Extraction ratio (EH), Mouse [7] | Structure (SMILES) | Primary glucuronidation [4] | also measured |
| --- | --- | --- | --- | --- | --- | --- |
|  |  |  |  | CCN(CC)CCCC(C)Nc1ccnc2cc(Cl)ccc12 (stereo not drawn) [Chloroquine] | no major increase in the rate of degradation | IC50 [1]: 17 nM; IC50 [2]: 97 nM; IC50 [3]: 69 nM |
| lower micromolar IC50 values |  |  |  | COc1ccc(C(=O)/C=C/c2ccc(OCc3cn(-c4ccnc5cc(Cl)ccc45)nn3)c(OC)c2)c(OC)c1 [Compound 8b] | no major increase in the rate of degradation | Solubility pH 2.0 (Solubility estimates; 1% DMSO): no increase in solubility under acidic conditions; Cytotoxicity [5]: No cytotoxicity was observed |
|  | 3.1 to 6.3 (≈ 7.13 to 14.5 µM) |  |  | COc1cc(/C=C/C(C)=O)ccc1OCc1cn(-c2ccnc3cc(Cl)ccc23)nn1 [Compound 12] | no putative metabolites detected with molecular weights consistent with glucuronidation | Solubility pH 2.0 (Solubility estimates; 1% DMSO): no increase in solubility under acidic conditions; solubility (Solubility estimates; 0.01M HCl, pH 2): 3.1 to 6.3 µg/mL (≈ 7.13 to 14.5 µM) |
| relatively low potencies | 6.3 to 12.5 (≈ 15.9 to 31.5 µM) | 0.90 | 0.85 | COc1cc(/C=C/C(C)=O)ccc1OCCNc1ccnc2cc(Cl)ccc12 [Compound 20, 4-{4-[2-(7-Chloro-quinolin-4-ylamino)-ethoxy]-3-methoxy-phenyl}-but-3-en-2-one] | no major increase in the rate of degradation | solubility (Solubility estimates; 0.01M HCl, pH 2): 50 to 100 µg/mL (≈ 126 to 252 µM); Solubility pH 6.5 (Solubility estimates; pH 6.5 phosphate buffer, 1% DMSO): moderate solubility |
| lower micromolar IC50 values | 3.1 to 6.3 (≈ 5.97 to 12.1 µM) | 0.85 | 0.86 | COc1ccc(C(=O)/C=C/c2ccc(OCCNc3ccnc4cc(Cl)ccc34)c(OC)c2)c(OC)c1 [Compound 21, 3-{4-[2-(7-Chloro-quinolin-4-ylamino)-ethoxy]-3-methoxy-phenyl}-1-(2,4-dimethoxy-phenyl)-propenone] | no major increase in the rate of degradation |  |
| relatively low potencies | 1.6 to 3.1 (≈ 3.43 to 6.65 µM) |  |  | COc1cc(/C=C/C(C)=O)ccc1OCCN1CCN(c2ccnc3cc(Cl)ccc23)CC1 [Compound 22, 4-(4-{2-[4-(7-Chloro-quinolin-4-yl)-piperazin-1-yl]-ethoxy}-3-methoxy-phenyl)-but-3-en-2-one] | no putative metabolites detected with molecular weights consistent with glucuronidation |  |
| lower micromolar IC50 values |  |  |  | COc1ccc(C(=O)/C=C/c2ccc(OCCN3CCN(c4ccnc5cc(Cl)ccc45)CC3)c(OC)c2)c(OC)c1 [Compound 23, 3-(4-{2-[4-(7-Chloro-quinolin-4-yl)-piperazin-1-yl]-ethoxy}-3-methoxy-phenyl)-1-(2,4-dimethoxy-phenyl)-propenone] | no major increase in the rate of degradation |  |
| relatively low potencies | 1.6 to 3.1 (≈ 3.54 to 6.86 µM) | 0.85 | 0.84 | COc1cc(/C=C/C(C)=O)cc(CN2CCN(c3ccnc4cc(Cl)ccc34)CC2)c1O [Compound 24, 4-{3-[4-(7-Chloro-quinolin-4-yl)-piperazin-1-ylmethyl]-4-hydroxy-5-methoxyphenyl}-but-3-en-2-one] |  |  |
| lower micromolar IC50 values |  | 0.72 | 0.87 | COc1ccc(C(=O)/C=C/c2cc(CN3CCN(c4ccnc5cc(Cl)ccc45)CC3)c(O)c(OC)c2)c(OC)c1 [Compound 25, 3-{3-[4-(7-Chloro-quinolin-4-yl)-piperazin-1-ylmethyl]-4-hydroxy-5-methoxyphenyl}-1-(2,4-dimethoxy-phenyl)-propenone] |  | Cytotoxicity [8]: No cytotoxicity was observed |
| lower micromolar IC50 values |  | 0.93 | 0.84 | CC(=O)/C=C/c1ccc(O)c(CN2CCN(c3ccnc4cc(Cl)ccc34)CC2)c1 [Compound 26, 4-{3-[4-(7-Chloro-quinolin-4-yl)-piperazin-1-ylmethyl]-4-hydroxy-phenyl}-but-3-en-2-one] |  |  |
| lower micromolar IC50 values |  |  |  | COc1ccc(C(=O)/C=C/c2ccc(O)c(CN3CCN(c4ccnc5cc(Cl)ccc45)CC3)c2)c(OC)c1 [Compound 27, 3-{3-[4-(7-Chloro-quinolin-4-yl)-piperazin-1-ylmethyl]-4-hydroxy-phenyl}-1-(2,4-dimethoxy-phenyl)-propenone] |  | Cytotoxicity [8]: No cytotoxicity was observed |
